Consider nine molecules from US20060063244A1, “Methods and composition for the production of orthogonal tRNA-aminoacyltRNA synthetase pairs” (The Scripps Research Institute, priority 2001, published 2006).

Data set [1] relates to valine position in the native protein. The conditions noted are these: edit-defective ValRS strain grown with Abu; cited from earlier work.
Another data set has as its target T1, mutant TyrRS (Methanocaldococcus jannaschii, UniProt Q57834, D158A/E107T/L162P/N268S/Y32Q).
T1 construct: His6 (C); made in house
Nature of the data set: Pyrophosphate-exchange assay of adenylate formation. The format is biochemical, Methanococcus jannaschii. The method, then: (§1) Kinetics of adenylate formation of O-methyl-L-tyrosine and tyrosine with adenosine triphosphate (ATP) catalyzed by the mutant TyrRS were analyzed in vitro using a pyrophosphate-exchange assay at 37° C. For example, the mutant TyrRS gene with six histidines at its C-terminus was cloned into plasmid pQE-60 (Qiagen, CA) to generate plasmid pQE-mJYRS. Protein was purified by immobilized metal affinity chromatography according to manufacture's protocol (Qiagen, CA). Pyrophosphate (PPi) exchange was carried out at 37° C. in a reaction mixture containing 100 mM TrisHCl (pH7.5), 10 mM KF, 5 mM MgCl2, 2 mM ATP, 2 mM NaPPi, 0.1 mg/mL bovine serum albumin, approximately 0.01 μCi/μL [^32P]NaPPi, and various concentrations of tyrosine or O-methyl-L-tyrosine. Reactions were initiated with the addition of the purified mutant TyrRS, and aliquots were periodically taken and quenched with 0.2 M NaPPi, 7% perchloric acid, and 2% activated charcoal. The charcoal was filtered and washed with 10 mM NaPPi (pH2), then measured by scintillation counting to determine the ^32P levels in charcoal-adsorbed ATP. Values of kcat and Km were calculated by direct fitting of the Michaelis-Menten equation using nonlinear regression analysis.

For a further data set, the system named is Escherichia coli. Description: Effect on growth of Escherichia coli host cells. Type of data set: cell-based. Particulars: 1 mM added to medium.
A further data set has as its system amber nonsense codon. Nature of the data set: Fidelity of translation by analysis of dihydrofolate reductase containing the unnatural amino acid. The format is cell-based, Escherichia coli. The conditions noted are these: incorporation in response to amber nonsense codon. An excerpt:
A unique transfer RNA (tRNA)-aminoacyl tRNA synthetase pair has been generated that expands the number of genetically encoded amino acids in Escherichia coli. When introduced into Escherichia coli, this pair leads to the in vivo incorporation of the synthetic amino acid O-methyl-L-tyrosine, added exogenously to the growth medium, into protein in response to an amber nonsense codon. The fidelity of translation is greater than 99%, as determined by analysis of dihydrofolate reductase containing the unnatural amino acid. This approach provides a general method for increasing the genetic repertoire of living cells to include a variety of amino acids with novel structural, chemical and physical properties not found in the common twenty amino acids.

Data set [2] deals with yeast PheRS / Escherichia coli PheRS. The conditions noted are these: cited from earlier work.
The subject of another data set is E. coli cells. Description: LC/MS analysis of toluenized E. coli cells grown with unnatural amino acid. Particulars: E. coli grown in the presence of the amino acid. The format is cell-based. An excerpt:
Generality of aminoacyl tRNA synthetase evolution. […] The enzyme can be evolved to accommodate a variety of functionalities in place of the phenol side chain of tyrosine and can do so with high selectivity. […] It was not possible to identify an enzyme variant that could accept the pCF unnatural amino acid. A second attempt to evolve a synthetase to accept the pCF amino acid was also unsuccessful.

Data set [3] concerns COc1ccc(C[C@H](N)C(=O)O)cc1. Description: Pyrophosphate-exchange assay of adenylate formation. Type of data set: biochemical, Methanococcus jannaschii. Particulars: other: mutant TyrRS, 37° C. The method, then: as §1
For data set [4], the system named is N[C@@H](Cc1ccc(O)cc1)C(=O)O. The data set is described as above. The conditions noted are these: other: mutant TyrRS, 37° C. The format is biochemical, Methanococcus jannaschii. As for the experimental part: as §1
Data set [5] concerns Escherichia coli total tRNA / purified tRNA from Halobacterium. Nature of the data set: In vitro aminoacylation by archaeal leucyl-tRNA synthetases. Type of data set: biochemical. The method, then:
The next step involved determination of a synthetase that charges the suppressor tRNA without interacting with host tRNA. The two chosen systems, Methanobacterium thermoautotrophicum and Methanococcus jannaschii were expressed, and aminoacylation was performed in vitro on purified tRNA from Halobacterium as a positive control, and for Escherichia coli total tRNA.

The nature of data set [6]: In vitro aminoacylation with leucine and methionine by editing-domain mutants of Methanobacterium thermoautotrophicum RS. The format is biochemical. An excerpt:
Next, point mutations were made in the editing domain. The catalytic core of the editing domain is well conserved across species and even for different amino acids, at least for the family of branched chain amino acids. Several of these conserved sites have previously been mutated, for example a T→P mutation, and found to knock out editing function. Mutants of Methanobacterium thermoautotrophicum RS were constructed that were similar to several known mutants, and also a 20 member NNK library derived from T214 was made. Proteins were expressed and examined in vitro for aminoacylation with leucine and methionine. None of the previously identified mutations were transferable to our system, but a desirable mutation was identified from the T214 library.

T1 sequence (Q57834 whole entry Y32Q/E107T/D158A/L162P/N268S): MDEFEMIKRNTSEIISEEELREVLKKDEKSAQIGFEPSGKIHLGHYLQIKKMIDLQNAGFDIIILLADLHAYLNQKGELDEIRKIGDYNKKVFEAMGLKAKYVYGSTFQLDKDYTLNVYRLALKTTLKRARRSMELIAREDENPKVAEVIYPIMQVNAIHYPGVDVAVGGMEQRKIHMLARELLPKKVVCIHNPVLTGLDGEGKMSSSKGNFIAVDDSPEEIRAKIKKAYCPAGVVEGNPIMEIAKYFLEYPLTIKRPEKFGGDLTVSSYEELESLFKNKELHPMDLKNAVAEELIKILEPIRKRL

Turning to `CCC(N)C(=O)O` (centres unmarked) [Abu, aminobutyrate], the “valines replaced at each valine position” value in [1] is given as “about 24%”.
`COc1ccc(C[C@H](N)C(=O)O)cc1` [O-methyl-L-tyrosine]: the “kcat/Km relative to tyrosine” value at mutant TyrRS is “about 100 fold”. The “effect on growth rate of Escherichia coli” value with Escherichia coli is reported as “does not significantly affect the growth rate”. In addition, the fidelity of translation result in the data set with amber nonsense codon is “greater than 99%”.
As for `N[C@@H](Cc1ccc(F)cc1)C(=O)O` [p-F-Phe, p-fluorophenylalanine], the “share found at the Phe codon positions” value in [2] is recorded as 7%. In addition, in data set [2] (excess p-F-Phe in growth media), the “share at the mutagenesis site” value is listed as 64-75%.
Take `N[C@@H](Cc1ccc(C(=O)O)cc1)C(=O)O` [pCF, p-Carboxyl-Phenylalanine]: the “detection in cells by LC/MS” value with E. coli cells is reported as “could not be detected”.
On to `N[C@@H](Cc1ccc(O)cc1)C(=O)O` [tyrosine], for which, at mutant TyrRS, the “Km relative to O-methyl-L-tyrosine” value is “approximately 13 fold” and the “kcat relative to O-methyl-L-tyrosine” value was “eight fold less”.
“mutant TyrRS (Methanocaldococcus jannaschii DSM 2661; D158A/E107T/L162P/N268S/Y32Q)”: the Km worked out at 0.443 ± 0.093 mM in data set [3] and 5.833 ± 0.902 mM in data set [4]. The kcat was 14±1×10^−3 s^−1 in data set [3] and 1.8±0.2×10^−3 s^−1 in data set [4].

B1: Methanobacterium thermoautotrophicum synthetase: leucyl-tRNA synthetase from Methanobacterium thermoautotrophicum (protein, UniProt O27552 1-937, looked up)
Leucine--tRNA ligase: MDIERKWRDRWRDAGIFQADPDDREKIFLTVAYPYPSGAMHIGHGRTYTVPDVYARFKRMQGYNVLFPMAWHVTGAPVIGIARRIQRKDPWTLKIYREVHRVPEDELERFSDPEYIVEYFSREYRSVMEDMGYSIDWRREFKTTDPTYSRFIQWQIRKLRDLGLVRKGAHPVKYCPECENPVGDHDLLEGEGVAINQLTLLKFKLGDSYLVAATFRPETIYGATNLWLNPDEDYVRVETGGEEWIISRAAVDNLSHQKLDLKVSGDVNPGDLIGMCVENPVTGQEHPILPASFVDPEYATGVVFSVPAHAPADFIALEDLRTDHELLERYGLEDVVADIEPVNVIAVDGYGEFPAAEVIEKFGVRNQEDPRLEDATGELYKIEHARGVMSSHIPVYGGMKVSEAREVIADELKDQGLADEMYEFAERPVICRCGGRCVVRVMEDQWFMKYSDDAWKDLAHRCLDGMKIIPEEVRANFEYYIDWLNDWACSRRIGLGTRLPWDERWIIEPLTDSTIYMAYYTIAHRLREMDAGEMDDEFFDAIFLDDSGTFEDLREEFRYWYPLDWRLSAKDLIGNHLTFHIFHHSAIFPESGWPRGAVVFGMGLLEGNKMSSSKGNVILLRDAIEKHGADVVRLFLMSSAEPWQDFDWRESEVIGTRRRIEWFREFGERVSGILDGRPVLSEVTPAEPESFIGRWMMGQLNQRIREATRALESFQTRKAVQEALYLLKKDVDHYLKRVEGRVDDEVKSVLANVLHAWIRLMAPFIPYTAEEMWERYGGEGFVAEAPWPDFSDDAESRDVQVAEEMVQNTVRDIQEIMKILGSTPERVHIYTSPKWKWDVLRVAAEVGKLDMGSIMGRVSAEGIHDNMKEVAEFVRRIIRDLGKSEVTVIDEYSVLMDASDYIESEVGARVVIHSKPDYDPENKAVNAVPLKPAIYLE
On to B1, for which, in data set [5], the “charging of Escherichia coli total tRNA versus Halobacterium tRNA” value is recorded as “specific towards the Halobacterium tRNA”.

B2: T214Q: editing-domain point mutant of Methanobacterium thermoautotrophicum leucyl-tRNA synthetase (protein, UniProt O27552 1-937, looked up, variant T214Q)
Leucine--tRNA ligase: MDIERKWRDRWRDAGIFQADPDDREKIFLTVAYPYPSGAMHIGHGRTYTVPDVYARFKRMQGYNVLFPMAWHVTGAPVIGIARRIQRKDPWTLKIYREVHRVPEDELERFSDPEYIVEYFSREYRSVMEDMGYSIDWRREFKTTDPTYSRFIQWQIRKLRDLGLVRKGAHPVKYCPECENPVGDHDLLEGEGVAINQLTLLKFKLGDSYLVAAQFRPETIYGATNLWLNPDEDYVRVETGGEEWIISRAAVDNLSHQKLDLKVSGDVNPGDLIGMCVENPVTGQEHPILPASFVDPEYATGVVFSVPAHAPADFIALEDLRTDHELLERYGLEDVVADIEPVNVIAVDGYGEFPAAEVIEKFGVRNQEDPRLEDATGELYKIEHARGVMSSHIPVYGGMKVSEAREVIADELKDQGLADEMYEFAERPVICRCGGRCVVRVMEDQWFMKYSDDAWKDLAHRCLDGMKIIPEEVRANFEYYIDWLNDWACSRRIGLGTRLPWDERWIIEPLTDSTIYMAYYTIAHRLREMDAGEMDDEFFDAIFLDDSGTFEDLREEFRYWYPLDWRLSAKDLIGNHLTFHIFHHSAIFPESGWPRGAVVFGMGLLEGNKMSSSKGNVILLRDAIEKHGADVVRLFLMSSAEPWQDFDWRESEVIGTRRRIEWFREFGERVSGILDGRPVLSEVTPAEPESFIGRWMMGQLNQRIREATRALESFQTRKAVQEALYLLKKDVDHYLKRVEGRVDDEVKSVLANVLHAWIRLMAPFIPYTAEEMWERYGGEGFVAEAPWPDFSDDAESRDVQVAEEMVQNTVRDIQEIMKILGSTPERVHIYTSPKWKWDVLRVAAEVGKLDMGSIMGRVSAEGIHDNMKEVAEFVRRIIRDLGKSEVTVIDEYSVLMDASDYIESEVGARVVIHSKPDYDPENKAVNAVPLKPAIYLE
For B2, in data set [6], the charging with leucine result is on record as “capable of charging with leucine” and the charging with methionine result was “capable of charging methionine”.

B3: Methanococcus jannaschii synthetase: leucyl tRNA synthetase cloned from Methanococcus jannaschii (protein, UniProt Q58050 1-942, looked up)
Leucine--tRNA ligase: MMVMIDFKEIEKKWQKRWEEAKIFEANPDDREKFFITAAFPYLNGVLHAGHLRTFTIPEVVARFQRMKNKNVLWTFGYHVTGTPILGLAELIKNRDEKTIWAYTELHGIPKEELLELTTPEKIVEYFSKKAEEAFKRMGFSLDWRRNFKTDDKVFNKFIEWQFHKLKEKGLIVKGSHPVRYCPRCDNPVEDHDILVGENATLVEYILIKFTTEDGCIMPMATLRPETVFGVTNVWVNPEATYVKAKVYLEKETENGIELIENGIWIMAKECAEKLKHQDRKIEIIEEFKGEQLINKKVKNPVTGKEVPILPAKFVKTNIGTGCVMSVPAHAPYDYIALRDLGLVDEIGLIPLINVPGYGKYPAKEIVEKMGIKSQEEEDKLEEATKKIYKDEFHKGVLNENCLDYEGIPVREIKDKLTKDLIDKGLAEIMYEFSEEKVICRCGTPCIVKMVKGQWFIKYSDEKWKELAHKCIDKMRFIPENLRQVFHEKIDWMKDKACVRRRGLGTKFPFEEGWVIESLSDSTIYPAYYTVAKYINQHNIKPEQLTLELFDYVFLGKGDVDKIAKETGIPKDIIEGMRKEFIYYYPVDWRCSAKDLIPNHLTFYIFNHVAIFPEEFWPRGIVVNGYVTIEGKKLSKSKGPVLPVLEVAEKFGADVGRFYITTCAELPQDADIKFKEMENTKKVLERLYLFAKEIAERRGETGEEFSYIDKWLLSRLYKAVKQYDEYMENFELRKAGILLYQLLDDLKWYRRRGGNNIRVLEEFLEVIIKLMMPFTPHLCEEMWEILGKEGFVSLAKFPEVKEEFINDEIEKGEEYLKAVMEDIKEIINVAKVQPKRIYLYTADDWKYEILKIIKENEGKTIKELMPIIMKNPEFRKYGKEIPKLVNQLIKLNAEIINEVEVLENAKEFLKKEVGVEDIIINGEDKANKKRVAIPFKPAIYLE
For the molecule B3, the “charging of Escherichia coli total tRNA versus Halobacterium tRNA” value in data set [5] is given as “able to effectively charge Escherichia coli tRNA”.
